Laboratory results: patent US11612595B2, “Compositions and methods for treating rheumatoid arthritis” (Generos Biopharma Ltd., priority 2017, dated 2023)

Experiments:
STAT3 = STAT3 (Homo sapiens, UniProt P40763); conditions: Daudi cells; cited from earlier work
STAT5 = target: T1, STAT5 (Homo sapiens, UniProt P42229+P51692); parameters: endogenous in cells; host or cells: K562 nuclear extract; conditions: K562 nuclear extract; cited from earlier work
T1 sequence (P42229 1-794): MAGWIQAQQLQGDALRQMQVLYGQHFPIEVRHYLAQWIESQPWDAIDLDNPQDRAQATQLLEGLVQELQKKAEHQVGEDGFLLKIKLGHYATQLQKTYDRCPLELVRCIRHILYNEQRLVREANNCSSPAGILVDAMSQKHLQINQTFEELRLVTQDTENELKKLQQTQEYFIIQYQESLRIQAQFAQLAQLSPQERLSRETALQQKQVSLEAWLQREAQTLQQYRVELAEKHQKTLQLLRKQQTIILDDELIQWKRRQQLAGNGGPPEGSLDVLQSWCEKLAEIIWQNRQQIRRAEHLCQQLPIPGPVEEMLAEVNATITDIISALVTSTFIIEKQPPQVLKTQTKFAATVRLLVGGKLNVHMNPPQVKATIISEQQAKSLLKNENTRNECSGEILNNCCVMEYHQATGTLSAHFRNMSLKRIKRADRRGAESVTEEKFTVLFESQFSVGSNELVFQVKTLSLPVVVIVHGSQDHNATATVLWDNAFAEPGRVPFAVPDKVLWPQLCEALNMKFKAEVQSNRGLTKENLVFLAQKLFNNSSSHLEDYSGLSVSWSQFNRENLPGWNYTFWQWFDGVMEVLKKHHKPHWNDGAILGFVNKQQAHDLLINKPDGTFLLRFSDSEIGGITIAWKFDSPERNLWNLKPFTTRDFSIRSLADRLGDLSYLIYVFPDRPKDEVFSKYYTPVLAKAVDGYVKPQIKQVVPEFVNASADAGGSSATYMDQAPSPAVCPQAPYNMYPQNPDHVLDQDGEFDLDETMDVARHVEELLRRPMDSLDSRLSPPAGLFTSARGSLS
T1 sequence (P51692 1-787): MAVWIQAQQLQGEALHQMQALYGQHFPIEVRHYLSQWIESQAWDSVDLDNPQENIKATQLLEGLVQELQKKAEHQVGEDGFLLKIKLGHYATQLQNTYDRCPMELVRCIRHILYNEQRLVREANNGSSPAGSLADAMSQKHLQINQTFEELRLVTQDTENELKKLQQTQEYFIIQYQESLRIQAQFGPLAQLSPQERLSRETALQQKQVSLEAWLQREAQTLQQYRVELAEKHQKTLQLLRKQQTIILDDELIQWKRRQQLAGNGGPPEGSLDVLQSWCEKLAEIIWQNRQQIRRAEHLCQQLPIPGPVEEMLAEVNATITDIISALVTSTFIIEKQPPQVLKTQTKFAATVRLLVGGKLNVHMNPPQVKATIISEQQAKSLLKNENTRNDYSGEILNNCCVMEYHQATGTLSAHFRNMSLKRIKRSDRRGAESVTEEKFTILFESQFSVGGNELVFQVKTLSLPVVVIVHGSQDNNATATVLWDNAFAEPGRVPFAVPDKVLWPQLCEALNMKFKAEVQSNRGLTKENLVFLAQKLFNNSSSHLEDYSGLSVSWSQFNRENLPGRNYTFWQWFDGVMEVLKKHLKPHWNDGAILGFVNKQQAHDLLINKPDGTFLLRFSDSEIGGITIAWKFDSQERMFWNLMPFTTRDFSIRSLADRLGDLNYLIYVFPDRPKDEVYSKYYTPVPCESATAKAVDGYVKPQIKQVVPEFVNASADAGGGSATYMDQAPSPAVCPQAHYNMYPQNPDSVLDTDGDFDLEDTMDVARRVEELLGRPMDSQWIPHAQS

AIA mouse model = AIA mouse model (mBSA-induced knee arthritis); assay type: in vivo, mice (C57BL/6); conditions: 10 mg/kg intraperitoneal
Protocol: This example describes a method of RA treatment with pimozide in a AIA mouse model. The right knees of fourteen mice (C57BL/6) were immunized with mBSA injection on the right knee to induce arthritis, while the left knees were used as control. Nine of the mice was then treated with pimozide. Specifically, pimozide was dissolved in DMSO at a concentration of 50 mg/ml, and then diluted in 30% PEG300 (Sigma) for intraperitoneal injection at 10 mg/kg dose. The remaining five mice were treated with vehicle DMSO that is diluted in 30% PEG300 for intraperitoneal injection. After 7 days, the mice were sacrificed and knees were dissected and fixed in 10% formalin and decalcified in 5% formic acid before dehydration and embedding in paraffin followed by standard hematoxylin and eosin (H&E) stain procedure.

[1] = test system: Chronic Myeloid Leukemia (CML) cell lines; conditions: cited from earlier work

Chain of STAT3 (P40763 whole entry): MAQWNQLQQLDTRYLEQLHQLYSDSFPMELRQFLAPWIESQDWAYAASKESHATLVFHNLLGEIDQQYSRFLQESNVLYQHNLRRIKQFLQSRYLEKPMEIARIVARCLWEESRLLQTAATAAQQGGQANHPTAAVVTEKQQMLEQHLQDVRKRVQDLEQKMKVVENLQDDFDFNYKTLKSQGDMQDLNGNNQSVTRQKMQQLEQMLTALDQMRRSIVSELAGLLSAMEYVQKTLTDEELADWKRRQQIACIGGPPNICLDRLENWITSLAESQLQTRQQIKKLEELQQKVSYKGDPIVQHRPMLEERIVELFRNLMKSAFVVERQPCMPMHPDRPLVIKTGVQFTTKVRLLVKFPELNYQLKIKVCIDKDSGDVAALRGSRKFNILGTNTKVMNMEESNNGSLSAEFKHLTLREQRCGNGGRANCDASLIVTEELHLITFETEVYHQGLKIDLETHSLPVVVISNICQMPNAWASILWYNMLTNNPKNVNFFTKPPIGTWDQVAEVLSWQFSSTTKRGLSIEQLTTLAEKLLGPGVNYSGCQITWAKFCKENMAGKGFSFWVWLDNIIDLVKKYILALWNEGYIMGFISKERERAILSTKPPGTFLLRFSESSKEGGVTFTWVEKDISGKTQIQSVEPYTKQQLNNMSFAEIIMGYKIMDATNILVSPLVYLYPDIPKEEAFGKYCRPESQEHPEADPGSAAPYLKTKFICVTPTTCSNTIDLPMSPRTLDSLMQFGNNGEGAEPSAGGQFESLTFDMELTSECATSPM

Compound | IFN-α-stimulated STAT3 tyrosine phosphorylation (STAT3) | STAT5/STAT5 DNA binding activity (STAT5) | infiltration of immune cells in knee cavity (H&E staining) (AIA mouse model; after 7 days, vs vehicle) | knee diameter differences (right knee vs left knee) (AIA mouse model; vs vehicle group) | cell cycle arrest and apoptosis [1]
O=C(N/N=C/c1coc2ccccc2c1=O)c1cccnc1 [nicotinohydrazide, N′-((4-Oxo-4H-chromen-3-yl)methylene)nicotinohydrazide] | not | blocks | – | – | –
O=c1[nH]c2ccccc2n1C1CCN(CCCC(c2ccc(F)cc2)c2ccc(F)cc2)CC1 [pimozide, 1-[1-[4,4-bis(4-fluorophenyl)butyl]-4-piperidinyl]-1,3-dihydro-2H-benzimidazole-2-one] | – | – | reduced infiltration of immune cells | significantly smaller | induces
